Experimental data from patent publication US20060052451A1, “Method” (priority 2002, published 2006).

How the values were obtained:
[1] = tested on: HT-29 cells (human colon tumour-derived); test: SRB growth inhibition assay, HT-29 cells; assay type: cell-based; details: 48 hours exposure
Procedure: (§1) The effect of perfluorinated compounds on the inhibition of tumour cell growth was assessed iii vitro using three human tumour-derived cell lines. Cancer cell lines were tested using the sulphorhodamine B (SRB) assay (which measures cellular protein and is directly related to cell number), which is utilised by the […] to screen anti-cancer agents.
(§2) HT-29 cells (human colon tumour-derived), MCF7 cells (human breast cancer-derived) and PC3 cells (human prostate cancer-derived) were harvested and diluted (to 5×10^4 cells per ml, 1×10^5 cells per ml and 7.5×10^4 cells per ml respectively) in RPMI 1640 medium containing 5% FBS, 2 mM glutamine and. 50 μg/ml gentamicin. 100 μl of cell suspension per well was added to 96 well plates and allowed to attach overnight. Cells were exposed to test compounds dissolved in DMSO in 100 μl of medium to give final drug concentrations of 0, 0.3, 1, 3, 10, 30, 100, 300, 1000 and 3000 μM (and DMSO at 0.25%). (n=6 for each drug concentration). After 48 hours, cells were fixed in 10% trichloroacetic acid (TCA) at 4° C. for 1-2 hours then washed using water and subsequently air-dried. 100 μl SRB solution (0.4%) in 1% Acetic Acid was added to each well, and plates were incubated at room temperature for 10 minutes. Unbound dye was removed by washing with 1% acetic acid. Plates were air-dried and bound stain was solubilised in 10 mM Tris base and the absorbance read at 520 nm.

[2] = 7-day oral gavage study, metabolic parameters, body weight and food consumption in CR SD rats; assay type: in vivo, rat; details: for Weight loss: 7 days; for Cholesterol (plasma) / Glucose (plasma) / Insulin (plasma) / Triglycerides (plasma): n=5; for Plasma glucose, % of control values: dose not stated
Procedure: Two groups (n=5) of CR SD rats (approximately 300 g) were treated with 2 dose levels of perfluorinated compounds (15 and 25 mg/kg/day body weight). Animals were administered test substances, dissolved in corn oil, by oral gavage, daily for 7 days. One group of 20 CR SD rays was also treated with vehicle (corn oil) alone. Body weight and food consumption were monitored daily.
Twenty-four hours after the last dose the animals were killed by an increasing concentration of carbon dioxide. Blood was collected by cardiac puncture and plasma was prepared and stored at −70° C. until analysed.
Plasma was analysed for triglycerides, cholesterol, and glucose, using kits purchased from Sigma. Concentrations of plasma insulin were determined using a commercially available enzyme-immunoassay-based kit from Amersham Biosciences. All assays were carried out as specified by the manufacturer.

[3] = molecular target: T1, PPAR delta (Homo sapiens, UniProt Q03181); test: PPAR delta transactivation assay in COS-1 cells; assay type: cell-based; set-up: Fold activation of PPAR delta: dose or concentration left out as unconfirmed; details: for Inhibition of activation of PPAR delta (by a factor of): transactivation assay; for Fold activation of PPAR delta: mean±SD n=3
T1 construct: 25 ng of vector DNA carrying PPAR alpha, delta or gamma; expressed in transfected cells; host or cells: COS-1 (African green monkey kidney cells)
T1 sequence (Q03181 1-441): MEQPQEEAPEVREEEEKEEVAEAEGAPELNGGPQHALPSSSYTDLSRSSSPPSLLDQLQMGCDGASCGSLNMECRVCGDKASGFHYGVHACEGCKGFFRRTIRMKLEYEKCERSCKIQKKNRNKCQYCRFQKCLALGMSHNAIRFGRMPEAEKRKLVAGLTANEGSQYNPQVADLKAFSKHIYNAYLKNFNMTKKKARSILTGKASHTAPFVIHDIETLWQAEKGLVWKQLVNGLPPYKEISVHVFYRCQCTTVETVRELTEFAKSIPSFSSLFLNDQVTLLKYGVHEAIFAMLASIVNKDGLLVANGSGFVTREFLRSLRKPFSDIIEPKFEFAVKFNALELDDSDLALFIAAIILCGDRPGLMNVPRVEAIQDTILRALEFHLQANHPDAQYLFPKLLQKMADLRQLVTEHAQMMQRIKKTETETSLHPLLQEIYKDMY

[4] = molecular target: T2, human PPAR-alpha ligand binding domain (Homo sapiens, UniProt Q07869); test: PPAR alpha ligand binding (displacement of DAUDA); details: for Kd: PPAR Receptor Binding Kd Alpha (apparent Kd), DAUDA displacement
T2 sequence (Q07869 179-468): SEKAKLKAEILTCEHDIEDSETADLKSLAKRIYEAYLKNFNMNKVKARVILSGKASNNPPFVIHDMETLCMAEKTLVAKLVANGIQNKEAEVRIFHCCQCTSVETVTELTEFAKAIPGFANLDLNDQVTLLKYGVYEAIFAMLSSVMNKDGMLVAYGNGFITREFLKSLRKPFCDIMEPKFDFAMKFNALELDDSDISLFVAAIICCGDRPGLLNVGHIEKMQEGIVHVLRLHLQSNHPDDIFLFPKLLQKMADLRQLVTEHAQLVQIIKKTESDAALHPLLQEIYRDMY

[5] = tested on: MCF7 cells (human breast cancer-derived); test: SRB growth inhibition assay, MCF7 cells; assay type: cell-based; details: 48 hours exposure
Procedure: as §1, §2

[6] = tested on: PC3 cells (human prostate cancer-derived); test: SRB growth inhibition assay, PC3 cells; assay type: cell-based
Procedure: as §1, §2

[7] = tested on: three human tumour-derived cell lines (HT-29, MCF7, PC3); test: SRB growth inhibition, summary over the three human tumour cell lines; assay type: cell-based; details: Homo sapiens; over HT-29, MCF7 and PC3
Procedure: as §1, §2

[8] = molecular target: T3, human PPAR-gamma ligand binding domain (Homo sapiens, UniProt P37231); test: PPAR gamma ligand binding (displacement of cis-parinaric acid)
T3 sequence (P37231 202-505): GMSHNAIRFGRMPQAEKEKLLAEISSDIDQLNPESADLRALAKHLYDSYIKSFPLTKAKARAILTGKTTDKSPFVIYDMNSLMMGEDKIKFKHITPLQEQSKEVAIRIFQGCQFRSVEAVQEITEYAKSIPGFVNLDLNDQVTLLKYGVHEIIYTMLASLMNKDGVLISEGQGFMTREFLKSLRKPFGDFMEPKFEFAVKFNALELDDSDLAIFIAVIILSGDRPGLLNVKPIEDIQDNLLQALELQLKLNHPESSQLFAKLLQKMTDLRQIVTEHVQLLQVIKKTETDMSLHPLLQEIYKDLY

[9] = Plasma levels of PFOA after 11 days oral dosing in SD rats (LC/MS/MS); assay type: in vivo, rat; details: 25 mg/kg oral daily for 11 days, 24 hours after final administration
Procedure: The study consisted of one control group of 8 male CD Sprague Dawley rats (8-10-weeks old; obtained from Harlan, UK) and 4 test groups that contained 4 rats. Animals received powdered RM1 diet ad libitum for the duration of the study. […] All chemicals were dissolved in Mazola corn oil (at 2.5 mg/ml) and test compounds were administered at 10 ml/kg bodyweight. Control animal received Mazola corn oil only. All animals were sacrificed after 11 days. Animals were killed by exposure to rising concentrations of CO2, and blood was harvested into lithium/heparin tubes for plasma.
Rat plasma samples were denatured by adding acetonitrile, and the amount of perfluorooctanoic acid (PFOA) present was determined by LC/MS/MS.

[10] = 15 mg/kg/day oral gavage 7 days
[11] = 25 mg/kg/day oral gavage 7 days
[12] = 15 and 25 mg/kg/day, versus control
[13] = Homo sapiens, PC-3, 48 hours exposure

| Structure (SMILES) | Plasma insulin, % of control values ([2]; 15 mg/kg) [%] | Weight loss ([2]; 15 mg/kg) [%] | Cholesterol (plasma) [2, 10] [mmol/L] | Glucose (plasma) [2, 10] [mmol/L] | Insulin (plasma) [2, 10] [ng/mL] | Triglycerides (plasma) [2, 10] [mmol/L] | Plasma cholesterol, % of control values ([2]; 25 mg/kg) [%] | Plasma insulin, % of control values ([2]; 25 mg/kg) [%] | Plasma triglycerides, % of control values ([2]; 25 mg/kg) [%] | Cholesterol (plasma) [2, 11] [mmol/L] | Glucose (plasma) [2, 11] [mmol/L] | Insulin (plasma) [2, 11] [ng/mL] | Triglycerides (plasma) [2, 11] [mmol/L] | Food consumption [2, 12] | Plasma glucose, % of control values [2] [%] | Inhibition of activation of PPAR delta (by a factor of) [3] | Kd [4] [µM] | IC50 ([1]; Homo sapiens, HT-29, 48 h) [µM] | IC50 ([5]; Homo sapiens, MCF7, 48 h) [µM] | IC50 [6, 13] [µM] | further results |
| --- | --- | --- | --- | --- | --- | --- | --- | --- | --- | --- | --- | --- | --- | --- | --- | --- | --- | --- | --- | --- | --- |
| O=C(O)C(F)(F)C(F)(F)C(F)(F)C(F)(F)C(F)(F)C(F)(F)C(F)(F)F [PFOA, Perfluorooctanoic acid] | 2.98 | 9.4 | 1.01 ± 0.086 | 10.30 ± 1.23 | 5.51 ± 8.88 | 0.37 ± 0.04 | 49.2 | 30.74 | 16.8 | 0.98 ± 0.35 | 10.01 ± 3.90 | 56.76 ± 46.5 | 0.3 ± 0.13 | dose-related, decreases in food consumption | 60 | 4 | 6 |  |  |  | IC50 [1]: 398 µM; Bodyweight lost ([2]; 25 mg/kg, after day 6, terminated early): 11.7%; IC50 [5]: 244 µM; IC50 ([6]; 48 hours exposure): 215 µM |
| N.O=C(O)C(F)(F)C(F)(F)C(F)(F)C(F)(F)C(F)(F)C(F)(F)C(F)(F)F [APFO, Ammonium perfluorooctanoate] | 13.5 | 1 | 1.00 ± 0.36 | 13.12 ± 0.74 | 25.02 ± 20.27 | 0.25 ± 0.07 | 56.2 | 8.3 | 19.1 |  | 11.99 ± 1.87 | 15.29 ± 9.72 | 0.34 ± 0.09 | dose-related, decreases in food consumption | 72.6 |  | 8 | 293 | 211 | 215 | Food consumption ([2]; 15 mg/kg): did not decrease further after day 6; Weight loss ([2]; 25 mg/kg (higher dose)): 11%; Bodyweight change ([2]; 15 and 25 mg/kg/day, continued till end of treatment): lost bodyweight after day 3; IC50 [7]: 200 to 600 µM |
| O=C(O)C(F)(F)C(F)(F)C(F)(F)C(F)(F)C(F)(F)C(F)(F)C(=O)O [PFSA, Perfluorosuberic acid (C8)] | 28.7 |  | 1.76 ± 0.15 | 16.41 ± 2.09 | 52.96 ± 26.55 | 0.95 ± 0.42 |  |  |  | 1.92 ± 0.36 | 15.9 ± 1.43 | 109 ± 103.2 | 1.22 ± 0.56 |  |  | 1.6 | 44 | > 3000 | > 3000 | > 3000 | Fold activation of PPAR delta [3]: 0.62 ± 0.31 fold; Reduction in binding affinity for PPAR alpha compared to PFOA [4]: 7 fold; IC50 [7]: ~3000 µM; Kd [8]: 13 µM; Reduction in binding affinity for PPAR gamma compared to PFOA [8]: ~40 fold |
| FC(F)(F)C(F)(F)C(F)(F)C(F)(F)C(F)(F)C(F)(F)C(F)(F)C(F)(F)F [PFO, Perfluorooctane] |  |  | 1.99 ± 0.46 | 18.41 ± 1.41 | 99.58 ± 126.1 | 1.03 ± 0.35 |  | 33.5 |  | 1.70 ± 0.11 | 17.13 ± 2.37 | 61.81 ± 45.81 | 2.09 ± 2.33 |  |  |  |  |  |  |  | Plasma glucose raised by ([2]; 25 mg/kg): 3% |
| CCCCC[C@H](O)/C=C/[C@@H]1[C@H]2C/C(=C/CCCC(=O)O)C[C@H]2C[C@H]1O [carbaprostacyclin, reference compound] |  |  |  |  |  |  |  |  |  |  |  |  |  |  |  |  |  |  |  |  | Fold activation of PPAR delta [3]: 2.17 ± 0.42 fold |
| CCOC(=O)C(F)(F)C(F)(F)C(F)(F)C(F)(F)C(F)(F)C(F)(F)C(F)(F)F [EPOA, Ethylperfluorooctanoate] |  |  |  |  |  |  |  |  |  |  |  |  |  |  |  |  |  |  |  |  | Plasma concentration of PFOA (free acid) [9]: equimolar concentrations of PFOA |
